How the values were obtained:
CCR4 = target: T1, CCR4 (Homo sapiens, UniProt P51679); experiment: CCL22 chemotaxis, human cells; format: cell-based
T1 sequence (P51679 1-360): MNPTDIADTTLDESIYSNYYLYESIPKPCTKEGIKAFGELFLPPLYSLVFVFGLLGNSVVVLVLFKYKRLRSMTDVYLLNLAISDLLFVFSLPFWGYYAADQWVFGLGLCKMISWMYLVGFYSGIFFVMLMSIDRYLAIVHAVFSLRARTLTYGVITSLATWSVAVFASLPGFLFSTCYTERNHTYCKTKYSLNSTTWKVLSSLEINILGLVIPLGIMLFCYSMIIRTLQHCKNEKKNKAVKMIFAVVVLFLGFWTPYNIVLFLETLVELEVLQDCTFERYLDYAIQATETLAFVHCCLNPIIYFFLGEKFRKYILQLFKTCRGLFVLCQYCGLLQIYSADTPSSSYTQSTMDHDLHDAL

KCM cells = experiment: KCM orthotopic pancreatic tumor model; format: in vivo, mice
From the text: The subcutaneous CT26 colon cancer model and the orthotopic KCM pancreatic cancer model were used to assess the effects of a CCR4 inhibitor, Compound 1, in combination with anti-CTLA-4 antibody (BioXcell: anti-mouse CTLA-4 (Clone: 9H10), raised in Syrian Hamster, purified with protein G). CT26 cells were implanted into the flanks of 9 week female Balb/c mice. Mice were randomized into study groups based on the tumor sizes on day 6, and dosing of both Compound 1 and anti-CTLA-4 started on day 7. For the orthotopic pancreatic cancer model, KCM cells were implanted directly into the pancreas, and dosing of Compound 1 and anti-CTLA-4 also began on day 7. Compound 1 was dosed orally twice daily at 30 mg/kg, and anti-CTLA-4 was dosed IP on days 7, 11 and 15 at 100 μg/mouse.
As briefly described in Example 1, above, a KCM pancreatic cancer model was used to assess the effectiveness of a CCR4 inhibitor in combination with an anti-CTLA-4 antibody. The mice were broken into 4 groups (n=12 each group): isotype antibody+Vehicle; Isotype Antibody+Compound 1; anti-CTLA-4+Vehicle; anti-CTLA-4+Compound 1. The mice used were 7-8 week old C57BL/6 female mice. […]
After completion of the study, the tumor/pancreases weight for each group was measured. […]
Changes in suppressive immune cell populations were also measured at the completion of this study. […] Pancreas from sham-operated mice were processed and analyzed. […]

Chemotaxis A2 (CCR4; Human CEM cells, 100% serum): 20 nM
Chemotaxis A2 (CCR4; Human CEM cells, buffer): 2 nM
Chemotaxis A2 (CCR4; Human lymphocytes, 100% serum): 20 nM
Chemotaxis A2 (CCR4; Human lymphocytes, buffer): 10 nM
SMILES: C[C@@H](Nc1cc(C2CCN([C@H]3CCCN(CCC(=O)O)C3)CC2)ccc1Cl)c1ccc(Cl)cc1Cl [Compound 1]
Spleen weight (KCM cells): reduced
Tumor burden (tumor + pancreas weight) (KCM cells; Compound 1 bid, anti-CTLA-4 100 μg i.p.): significantly reduced tumor burden
